Data taken from PubChem BioAssay (NCI).
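1) Cells in 96-well plates. 2) Compound, 48 h, 5 concentrations. 3) Linear interpolation between surrounding doses. 4) Unreached endpoint = highest concentration. Definition used: TGI = concentration required for complete inhibition of growth.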

Assays:
Experiment in all cases: growth of human tumour cells (NCI), 48 h
RXF-631 renal = tested on: RXF-631 renal
M19-MEL melanoma = tested on: M19-MEL melanoma
DMS 114 small cell lung = tested on: DMS 114 small cell lung
SR leukemia = tested on: SR leukemia
K-562 leukemia = tested on: K-562 leukemia
KM20L2 colon = tested on: KM20L2 colon
DLD-1 colon = tested on: DLD-1 colon
DMS 273 small cell lung = tested on: DMS 273 small cell lung
HOP-18 NSCLC = tested on: HOP-18 NSCLC
SNB-78 CNS = tested on: SNB-78 CNS
XF 498 CNS = tested on: XF 498 CNS
LXFL 529 NSCLC = tested on: LXFL 529 NSCLC

COc1ccccc1NC(=O)C(=O)C(c1cnc2ccc([N+](=O)[O-])cc2n1)[N+](=O)[O-] (configuration not stated)
TGI (RXF-631 renal): > 100 µM
TGI (M19-MEL melanoma): > 100 µM
TGI (DMS 114 small cell lung): 66.4 µM
TGI (SR leukemia): > 100 µM
TGI (K-562 leukemia): > 100 µM
TGI (KM20L2 colon): > 100 µM
TGI (DLD-1 colon): > 100 µM
TGI (DMS 273 small cell lung): > 100 µM
TGI (HOP-18 NSCLC): > 100 µM
TGI (SNB-78 CNS): > 100 µM
TGI (XF 498 CNS): > 100 µM
TGI (LXFL 529 NSCLC): > 100 µM
